Source: patent publication US20180325781A1, “FORMULATIONS FOR CONTROLLED RELEASE OF BUPIVACAINE” (Research Triangle Institute, priority 2017, published 2018)
Counter-ions that a name gives are not always drawn.

What was measured:
[1] = single injection; cited from earlier work
[2] = diffusion/release of free (unencapsulated) BP through hemostat matrix, dialysis method; assay type: physicochemical; details: 1 mg free BP-HCl in 50 or 100 mg Gelfoam or Avitene; 1xPBS pH 7.2, 37° C.; over 24 hours
Method: FIG. 5 is a graphical representation of the release of unencapsulated BP from matrix material. 1 mg of free BP—HCl in 0.9 wt/vol % NaCl was combined with either Gelfoam® or Avitene™ (at either 50 mg or 100 mg of matrix) and monitored for release through the matrix over time. The samples were placed in dialysis tubing and submerged in 1×PBS (pH=7.2) at 37° C.
To test the diffusion of free BP (i.e., not encapsulated in microparticles) through the hemostat, the material (i.e., free BP mixed with hemostat) was submerged in physiological media and the released BP measured over time.
In vitro release studies were performed using a dialysis method. […]
UHPLC analysis of released BP was performed on a Waters (Milford, Mass.) ACQUITY UHPLC system equipped with a PDA detector set to 205 nm to quantify BP. […]
The acid form of BP was chromatographically separated on a Waters ACQUITY BEH C18 column (1.7 μm, 2.1×50 mm) by isocratic elution with 70% phosphate buffer/30% ACN at a flow rate of 0.60 mL/min. […] Calibration standards were analyzed and the peaks corresponding to BP were integrated, plotted against the concentration, and the calibration curve was calculated by linear least-squares regression without weighting. […]

Structure (SMILES)	complete elimination [1] [h]	time to maximum plasma drug concentration [1] [min]	release of free BP from the hemostat [2]
CCCCN1CCCCC1C(=O)Nc1c(C)cccc1C (stereo not drawn) [bupivacaine]	6 to 8	30 to 45	–
CCCCN1CCCCC1C(=O)Nc1c(C)cccc1C (stereo not drawn) [free BP, bupivacaine hydrochloride monohydrate]	–	–	majority of free BP was released
